Results published in patent US9355787B2, “Method of forming rigid imide material from soluble amide ester functionalized precursors” (Colorado School of Mines, priority 2013, dated 2016).

Assay: Qualitative solubility of diester-diacid monomers in organic solvents

Row | Molecule | Solubility of monomer or dianhydride, in words
1 | CCCCCCOC(=O)c1ccc2c3ccc(C(=O)O)c4c(C(=O)OCCCCCC)ccc(c5ccc(C(=O)O)c1c52)c43 [Monomer 2c, di-N-hexyl ester of perylene-3,4,9,10 tetracarboxylic acid] | soluble in polar aprotic solvents like NMP, and DMSO
2 | CCCCC(CC)COC(=O)c1ccc2c3ccc(C(=O)O)c4c(C(=O)OCC(CC)CCCC)ccc(c5ccc(C(=O)O)c1c52)c43 (stereo not drawn) [Monomer 2d, di-2-ethy hexyl ester of perylene-3,4,9,10 tetracarboxylic acid] | soluble in polar aprotic solvents like NMP, and DMSO
3 | O=C1OC(=O)c2ccc3c4ccc5c6c(ccc(c7ccc1c2c73)c64)C(=O)OC5=O [PTDA, 3,4,9,10-perylenetetracarboxylic dianhydride] | insoluble in all solvents
4 | di-ethyl ester of NTDA [Monomer 1b] | soluble in most of the organic solvents
5 | di-hexyl ester of NTDA [Monomer 1c] | soluble in most of the organic solvents
6 | di-methyl ester of NTDA [Monomer 1a] | soluble in most of the organic solvents
